Consider 17 compounds from PubChem BioAssay AID256 (DTP/NCI, 2004).

Molecules are shown by their SMILES. Where “and” joins values, the source holds several entries; their conditions need not be identical. Identical values can stand only once. Toxic doses and inconclusive results are not listed.

This test relates to CD2F1 mice, L1210 leukemia ip, survival T/C. In words: NCI In Vivo Anticancer Drug Screen. Data for tumor model L1210 Leukemia (intraperitoneal) in CD2F1 (CDF1) mice. To be noted: higher = longer survival. The procedure, abridged: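 Each value reflects a quotient of treated over vehicle control outcomes in mice with a transplanted tumor.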
The mark [1] stands for this setting: endpoint: mean survival time, dose: 100.0 mg/kg/injection, schedule: Q04DX003 (ip), vehicle: saline.
[2] abbreviates: endpoint: mean survival time, dose: 200.0 mg/kg/injection, schedule: Q04DX003 (ip), vehicle: saline.
[3] abbreviates: endpoint: mean survival time, dose: 100.0 mg/kg/injection, schedule: Q04DX003 (ip), vehicle: saline with Tween-80.
[4] abbreviates: endpoint: mean survival time, dose: 400.0 mg/kg/injection, schedule: Q04DX003 (ip), vehicle: saline with Tween-80.
Where [5] appears, read: endpoint: mean survival time, dose: 200.0 mg/kg/injection, schedule: Q04DX003 (ip), vehicle: saline with Tween-80.
Where [6] appears, read: endpoint: mean survival time, dose: 100.0 mg/kg/injection, schedule: Q01DX001 (ip), vehicle: saline with Tween-80.
Where [7] appears, read: endpoint: mean survival time, dose: 200.0 mg/kg/injection, schedule: Q01DX001 (ip), vehicle: saline with Tween-80.
The mark [8] stands for this setting: endpoint: mean survival time, dose: 400.0 mg/kg/injection, schedule: Q01DX001 (ip), vehicle: saline with Tween-80.

On to `CN(C)CCCCO`, for which the T/C runs as follows: (endpoint: mean survival time, dose: 50.0 mg/kg/injection, schedule: Q01DX009 (ip), vehicle: saline) 98 % of control; (endpoint: mean survival time, dose: 100.0 mg/kg/injection, schedule: Q01DX009 (ip), vehicle: saline) 98 % of control; under setting [1], 95 % of control; (endpoint: mean survival time, dose: 200.0 mg/kg/injection, schedule: Q01DX009 (ip), vehicle: saline) 97 % of control; under setting [2], 96 % of control.

As to `CN(C)C(=O)C1C2C=CC(CCC2)C1C(=O)N(C)C` (stereo not given), the T/C is, setting by setting: (endpoint: mean survival time, dose: 100.0 mg/kg/injection, schedule: Q04DX002 (ip), vehicle: saline) 91 % of control; (endpoint: mean survival time, dose: 200.0 mg/kg/injection, schedule: Q04DX002 (ip), vehicle: saline) 88 % of control; (endpoint: mean survival time, dose: 400.0 mg/kg/injection, schedule: Q04DX002 (ip), vehicle: saline) 91 % of control.

Take `CSc1ccc(N=C/C=C/c2ccccc2)cc1`: the T/C under setting [3] is 93 % of control and the T/C under setting [4] was 91 % of control.

As for `O=[N+]([O-])c1cccc(/C=N\[n+]2ccccc2)c1`, the T/C (endpoint: mean survival time, dose: 50.0 mg/kg/injection, schedule: Q04DX002 (ip), vehicle: saline with Tween-80) was 97 % of control; the T/C (endpoint: mean survival time, dose: 100.0 mg/kg/injection, schedule: Q04DX002 (ip), vehicle: saline with Tween-80) was 100 % of control; the T/C (endpoint: mean survival time, dose: 200.0 mg/kg/injection, schedule: Q04DX002 (ip), vehicle: saline with Tween-80) is 100 % of control.

With `Cc1c(N)nc(C(CC(N)=O)NCC(N)C(N)=O)nc1C(=O)NC(C(=O)NC(C)C(O)C(C)C(=O)NC(C(=O)NCCc1nc(-c2nc(C(=O)NCCCNC(C)c3ccccc3)cs2)cs1)C(C)O)C(OC1OC(CO)C(O)C(O)C1OC1OC(CO)C(O)C(OC(N)=O)C1O)c1cnc[nH]1` (stereo not given), the T/C was 100 % of control (endpoint: mean survival time, dose: 0.25 mg/kg/injection, schedule: Q01DX009 (ip), vehicle: water); 103 % of control and 105 % of control (endpoint: mean survival time, dose: 0.5 mg/kg/injection, schedule: Q01DX009 (ip), vehicle: water); 103 % of control (endpoint: mean survival time, dose: 1.0 mg/kg/injection, schedule: Q01DX009 (ip), vehicle: saline); 123 % of control and 98 % of control (endpoint: mean survival time, dose: 1.0 mg/kg/injection, schedule: Q01DX009 (ip), vehicle: water); 106 % of control (endpoint: mean survival time, dose: 2.0 mg/kg/injection, schedule: Q01DX009 (ip), vehicle: saline); 104 % of control and 109 % of control (endpoint: mean survival time, dose: 2.0 mg/kg/injection, schedule: Q01DX009 (ip), vehicle: water). Besides, the T/C is 104 % of control (endpoint: mean survival time, dose: 4.0 mg/kg/injection, schedule: Q01DX009 (ip), vehicle: saline); 113 % of control and 102 % of control (endpoint: mean survival time, dose: 4.0 mg/kg/injection, schedule: Q01DX009 (ip), vehicle: water); 106 % of control (endpoint: mean survival time, dose: 8.0 mg/kg/injection, schedule: Q01DX009 (ip), vehicle: saline); 109 % of control (endpoint: mean survival time, dose: 8.0 mg/kg/injection, schedule: Q01DX009 (ip), vehicle: water); 101 % of control (endpoint: mean survival time, dose: 16.0 mg/kg/injection, schedule: Q01DX009 (ip), vehicle: saline); 113 % of control (endpoint: mean survival time, dose: 16.0 mg/kg/injection, schedule: Q01DX009 (ip), vehicle: water). The T/C (endpoint: mean survival time, dose: 32.0 mg/kg/injection, schedule: Q01DX009 (ip), vehicle: saline) is 89 % of control.

For the compound `O=S(=O)(Cl)c1ccc(-c2ccc(S(=O)(=O)Cl)cc2)cc1`, the T/C is 95 % of control (endpoint: mean survival time, dose: 100.0 mg/kg/injection, schedule: Q04DX003 (ip), vehicle: Klucel (hydroxypropylcellulose) (HPC)); 106 % of control (endpoint: mean survival time, dose: 200.0 mg/kg/injection, schedule: Q04DX003 (ip), vehicle: Klucel (hydroxypropylcellulose) (HPC)); 103 % of control (endpoint: mean survival time, dose: 400.0 mg/kg/injection, schedule: Q04DX003 (ip), vehicle: Klucel (hydroxypropylcellulose) (HPC)).

For the compound `COc1ccc(N(C)C/C(CN)=N/O)cc1`, the T/C is 97 % of control (endpoint: mean survival time, dose: 100.0 mg/kg/injection, schedule: Q01DX001 (ip), vehicle: Klucel (hydroxypropylcellulose) (HPC)) and 102 % of control (endpoint: mean survival time, dose: 200.0 mg/kg/injection, schedule: Q01DX001 (ip), vehicle: Klucel (hydroxypropylcellulose) (HPC)).

As to `COc1ccccc1NC(=O)Nc1ccc(C(=O)OCC(C)C)cc1`, the T/C by setting is: (endpoint: mean survival time, dose: 100.0 mg/kg/injection, schedule: Q01DX009 (ip), vehicle: saline with Tween-80) 89 % of control; under setting [3], 92 % of control; (endpoint: mean survival time, dose: 200.0 mg/kg/injection, schedule: Q01DX009 (ip), vehicle: saline with Tween-80) 88 % of control; under setting [5], 88 % of control; under setting [4], 86 % of control.

Turning to `CC(=O)CC(=O)N(C)Cc1ccccc1`, the T/C was 101 % of control under setting [6], 104 % of control under setting [7] and 107 % of control under setting [8].

For the compound `CC(C)(C)N/C(=C/C(=O)c1ccccc1)c1ccccc1`, the T/C was 94 % of control under setting [3], 96 % of control under setting [5] and 95 % of control under setting [4].

Turning to `CS(=O)(=O)c1ccnc2ccccc12`, the T/C by setting is: under setting [1], 98 % of control; under setting [2], 92 % of control; (endpoint: mean survival time, dose: 400.0 mg/kg/injection, schedule: Q04DX003 (ip), vehicle: saline) 95 % of control.

For the compound `CC(CCC(=O)O)C1CCC2C3C(O)CC4CC(O)CCC4(C)C3CC(O)C12C` (stereo not given), the T/C is 96 % of control under setting [6], 100 % of control under setting [7] and 96 % of control under setting [8].

Turning to `CC1CC([NH-])C([NH-])C(C)(C)C1.[Cl][Pt+2][Cl]` (stereo not given), the T/C is, setting by setting: (endpoint: median survival time, dose: 10.0 mg/kg/injection, schedule: Q04DX003 (ip), vehicle: Klucel (hydroxypropylcellulose) (HPC)) 117 % of control; (endpoint: median survival time, dose: 50.0 mg/kg/injection, schedule: Q04DX003 (ip), vehicle: Klucel + Tween-80) 153 % of control; (endpoint: median survival time, dose: 100.0 mg/kg/injection, schedule: Q04DX003 (ip), vehicle: Klucel + Tween-80) 155 % of control.

Consider `CCOC(=O)C[P+](c1ccccc1)(c1ccccc1)c1ccccc1`, for which the T/C by setting is: (endpoint: mean survival time, dose: 3.13 mg/kg/injection, schedule: Q01DX009 (ip), vehicle: saline sonified) 93 % of control; (endpoint: mean survival time, dose: 3.13 mg/kg/injection, schedule: Q04DX003 (ip), vehicle: saline with Tween-80) 98 % of control; (endpoint: mean survival time, dose: 6.25 mg/kg/injection, schedule: Q01DX009 (ip), vehicle: saline sonified) 94 % of control; (endpoint: mean survival time, dose: 6.25 mg/kg/injection, schedule: Q04DX003 (ip), vehicle: saline with Tween-80) 98 % of control; (endpoint: mean survival time, dose: 12.5 mg/kg/injection, schedule: Q01DX009 (ip), vehicle: saline sonified) 93 % of control; (endpoint: mean survival time, dose: 12.5 mg/kg/injection, schedule: Q04DX003 (ip), vehicle: saline with Tween-80) 98 % of control. In addition, the T/C is, setting by setting: (endpoint: mean survival time, dose: 25.0 mg/kg/injection, schedule: Q01DX009 (ip), vehicle: saline sonified) 93 % of control; (endpoint: mean survival time, dose: 25.0 mg/kg/injection, schedule: Q04DX003 (ip), vehicle: saline with Tween-80) 95 % of control.

On to `O=C(OCC1OC(n2cnc([N+](=O)[O-])n2)C(OC(=O)c2ccccc2)C1OC(=O)c1ccccc1)c1ccccc1` (stereo not given), for which the T/C by setting is: (endpoint: median survival time, dose: 18.8 mg/kg/injection, schedule: Q01DX005 (ip), vehicle: Klucel (hydroxypropylcellulose) (HPC)) 100 % of control; (endpoint: median survival time, dose: 37.5 mg/kg/injection, schedule: Q01DX005 (ip), vehicle: Klucel (hydroxypropylcellulose) (HPC)) 102 % of control; (endpoint: median survival time, dose: 75.0 mg/kg/injection, schedule: Q01DX005 (ip), vehicle: Klucel (hydroxypropylcellulose) (HPC)) 97 % of control; (endpoint: median survival time, dose: 140.0 mg/kg/injection, schedule: Q01DX005 (ip), vehicle: Klucel (hydroxypropylcellulose) (HPC)) 96 % of control.

As for `CN(C)c1n[nH]c(=S)s1`, the T/C reads like this: under setting [3], 100 % of control; under setting [5], 100 % of control; under setting [4], 88 % of control.

As for `O=C(O)C(O)C(O)C(O)C(O)C(O)CO.[NH-]C1CCCCC1[NH-].[Pt+2]` (stereo not given), the T/C is, setting by setting: (endpoint: median survival time, dose: 12.5 mg/kg/injection, schedule: Q04DX003 (ip), vehicle: saline) 153 % of control and 178 % of control; (endpoint: median survival time, dose: 25.0 mg/kg/injection, schedule: Q04DX003 (ip), vehicle: saline) 266 % of control and 297 % of control; (endpoint: median survival time, dose: 50.0 mg/kg/injection, schedule: Q04DX003 (ip), vehicle: saline) 175 % of control and 375 % of control; (endpoint: median survival time, dose: 100.0 mg/kg/injection, schedule: Q04DX003 (ip), vehicle: saline) 103 % of control.
